The test system of assay [1] is pERK in H460 cells. The experiment in a line: Inhibition of KRas phosphorylation of ERK (Cisbio HTRF pERK assay). To be noted: Homo sapiens, NCI-H460, read-out: Inhibition (HTRF IC50) of KRas-mediated Phosphorylation of ERK, H460.
Assay [2] deals with T1, KRas G12V (Homo sapiens, UniProt P01116, G12V). The assay can be described thus: biochemical.
Description: (§2) The ability of a compound to bind to KRas was measured using a TR-FRET displacement assay. […] After a 60-minute incubation at room temperature, the reaction was measured using a BMG LABTECH CLARIO star Plus via TR-FRET. […] The POC values were fit to a 4-parameter IC50 equation and the IC50 value reported.
In assay [3] the target is KRas G12S (Homo sapiens, UniProt P01116, G12S). The assay can be described thus: biochemical.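 Also: TR-FRET displacement binding to KRas, read after one hour incubation at room temperature, IC50 from four-parameter fit of percent of control.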
Sequence of KRas G12S (P01116 1-169 isoform P01116-2 G12S): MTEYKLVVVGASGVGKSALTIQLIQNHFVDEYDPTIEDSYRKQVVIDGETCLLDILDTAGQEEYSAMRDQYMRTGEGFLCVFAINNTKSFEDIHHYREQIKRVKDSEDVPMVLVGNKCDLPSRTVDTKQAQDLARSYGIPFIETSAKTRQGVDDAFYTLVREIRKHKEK
Description: as §2
The target of assay [4] is KRas G12C (Homo sapiens, UniProt P01116, G12C). The assay can be described thus: biochemical.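 Also: binding to KRas assessed by TR-FRET displacement after one hour incubation at room temperature, potency fitted from percent-of-control values.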
Sequence of KRas G12C (P01116 1-169 isoform P01116-2 G12C): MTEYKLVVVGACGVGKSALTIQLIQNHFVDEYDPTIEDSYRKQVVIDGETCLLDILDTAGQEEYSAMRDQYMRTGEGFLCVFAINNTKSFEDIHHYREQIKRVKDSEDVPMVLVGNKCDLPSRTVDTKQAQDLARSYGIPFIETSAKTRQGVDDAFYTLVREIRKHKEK
Description: as §2
For assay [5], the system named is pERK in H727 cells. The experiment in a line: Inhibition of KRas phosphorylation of ERK (Cisbio HTRF pERK assay). The note with it: Homo sapiens, NCI-H727, read-out: Inhibition (HTRF IC50) of KRas-mediated Phosphorylation of ERK, H727. (In general: Time-resolved FRET reads energy transfer from a long-lived donor to a nearby acceptor.)
Assay [6] concerns pERK in A549 cells. The assay is described as above. To be noted: Homo sapiens, A549, read-out: Inhibition (HTRF IC50) of KRas-mediated Phosphorylation of ERK, A549.
For assay [7], the system named is pERK in ASPC1 cells. Described as above. The note with it: Homo sapiens, ASPC1, read-out: Inhibition (HTRF IC50) of KRas-mediated Phosphorylation of ERK, AsPC-1.
Assay [8] addresses T2, KRas Q61H (Homo sapiens, UniProt P01116, Q61H).
T2 construct: Biotinylated KRas (corresponding to amino acids 1-169, produced at Accelegan Inc.); biotin (biotinylated); purchased Accelegan Inc
The assay can be described thus: KRas binding assay (TR-FRET displacement).
Description: as §2

The target of assay [9] is T3, KRas G13D (Homo sapiens, UniProt P01116, G13D).
T3 construct: Biotinylated KRas (corresponding to amino acids 1-169, produced at Accelegan Inc.); biotin (biotinylated); purchased Accelegan Inc
T3 sequence (P01116 1-169 isoform P01116-2 G13D): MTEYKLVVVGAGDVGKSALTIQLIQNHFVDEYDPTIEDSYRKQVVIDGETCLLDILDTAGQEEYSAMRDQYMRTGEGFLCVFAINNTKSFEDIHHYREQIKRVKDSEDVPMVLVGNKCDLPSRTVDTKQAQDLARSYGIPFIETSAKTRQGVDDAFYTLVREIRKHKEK
The assay can be described thus: KRas binding assay (TR-FRET displacement).
Description: as §2

Assay [10] deals with KRas G12A (Homo sapiens, UniProt P01116, G12A). The experiment in a line: biochemical.
Sequence of KRas G12A (P01116 1-169 isoform P01116-2 G12A): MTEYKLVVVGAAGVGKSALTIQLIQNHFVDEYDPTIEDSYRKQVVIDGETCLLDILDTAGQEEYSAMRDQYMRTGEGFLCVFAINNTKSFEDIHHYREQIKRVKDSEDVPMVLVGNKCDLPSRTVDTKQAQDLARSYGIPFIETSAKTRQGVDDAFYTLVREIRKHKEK
Description: as §2
Assay [11] has as its system pERK in MKN1 cells. The experiment in a line: Inhibition of KRas phosphorylation of ERK (Cisbio HTRF pERK assay). The note with it: Homo sapiens, MKN-1, 3 h, read-out: Inhibition (HTRF IC50) of KRas-mediated Phosphorylation of ERK, MKN1.
In assay [12] the target is T4, KRas G12R (Homo sapiens, UniProt P01116, G12R). The assay can be described thus: biochemical.
T4 sequence (P01116 1-169 isoform P01116-2 G12R): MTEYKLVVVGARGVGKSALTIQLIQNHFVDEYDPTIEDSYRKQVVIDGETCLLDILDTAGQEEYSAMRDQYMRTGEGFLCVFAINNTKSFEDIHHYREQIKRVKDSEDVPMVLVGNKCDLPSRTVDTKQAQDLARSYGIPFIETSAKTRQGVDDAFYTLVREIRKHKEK
Description: as §2
In assay [13] the target is KRas G12D (Homo sapiens, UniProt P01116, G12D). The assay can be described thus: biochemical.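 Also: TR-FRET displacement binding assay on KRas, read after a one-hour incubation at room temperature, IC50 fitted from percent-of-control values.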
Sequence of KRas G12D (P01116 1-169 isoform P01116-2 G12D): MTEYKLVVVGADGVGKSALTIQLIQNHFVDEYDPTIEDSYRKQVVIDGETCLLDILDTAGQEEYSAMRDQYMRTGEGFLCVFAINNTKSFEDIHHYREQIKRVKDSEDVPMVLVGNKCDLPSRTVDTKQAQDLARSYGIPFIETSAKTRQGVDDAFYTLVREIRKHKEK
Description: as §2
Assay [14] has as its system pERK in PSN1 cells. The experiment in a line: Inhibition of KRas phosphorylation of ERK (Cisbio HTRF pERK assay). The note with it: Homo sapiens, PSN1, 3 h, read-out: Inhibition (HTRF IC50) of KRas-mediated Phosphorylation of ERK, PSN1.
The test system of assay [15] is phospho-ERK in NCI-H460 (Q61H) cells. The experiment in a line: Inhibition of KRas-mediated phosphorylation of ERK (in-cell western). To be noted: 3 hours compound, phospho-ERK normalized to GAPDH. The format is cell-based. The procedure, abridged: (§1)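 Cells were treated with compound for 3 hours (0.5% DMSO final), then fixed with formaldehyde and permeabilized with ice-cold methanol. Phospho-ERK (Thr202/Tyr204) was detected by antibody and normalized to GAPDH per well, expressed as percent of DMSO control, and IC50 obtained by 4-parameter fit.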

In assay [16] the test system is phospho-ERK in NCI-H727 (G12V) cells. Described as above. In kind it is cell-based. The note with it: 3 hours compound, phospho-ERK normalized to GAPDH. Put shortly:
as §1

Assay [17] concerns phospho-ERK in NCI-H358 (G12C) cells. Described as above. In kind it is cell-based. The note with it: Homo sapiens, 3 hours compound, phospho-ERK normalized to GAPDH. Put shortly: as §1
Assay [18] concerns phospho-ERK in MKN1 (WTdep) cells. The description is as above. The note with it: Homo sapiens, MKN-1, 3 hours compound, phospho-ERK normalized to GAPDH. The format is cell-based. The procedure, abridged: as §1
Assay [19] has as its system phospho-ERK in AsPC-1 (G12D) cells. The description is as above. The format is cell-based. The note with it: 3 hours compound, phospho-ERK normalized to GAPDH. Put shortly: as §1
The test system of assay [20] is phospho-ERK in PSN-1 (G12R) cells. The assay is described as above. In kind it is cell-based. The note with it: Homo sapiens, PSN1, 3 hours compound, phospho-ERK normalized to GAPDH. Put shortly:
as §1

In assay [21] the test system is phospho-ERK in HCT116 (G13D) cells. The assay is described as above. In kind it is cell-based. To be noted: Homo sapiens, HCT-116, 3 hours compound, phospho-ERK normalized to GAPDH. Put shortly: as §1
In assay [22] the test system is phospho-ERK in A549 (G12S) cells. Described as above. In kind it is cell-based. The note with it: Homo sapiens, 3 hours compound, phospho-ERK normalized to GAPDH. The procedure, abridged:
as §1

For assay [23], the system named is pERK in HCT116 cells. The experiment in a line: Inhibition of KRas phosphorylation of ERK (Cisbio HTRF pERK assay). The note with it: Homo sapiens, HCT-116, read-out: Inhibition (HTRF IC50) of KRas-mediated Phosphorylation of ERK, HCT116.
Assay [24] has as its target KRas WT (Homo sapiens, UniProt P01116). The experiment in a line: biochemical.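 Also: binding to KRas read as TR-FRET displacement after a one-hour room-temperature incubation, IC50 derived from percent-of-control values.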
Description: as §2
The test system of assay [25] is pERK in H358 cells. The assay can be described thus: Inhibition of KRas phosphorylation of ERK (Cisbio HTRF pERK assay). To be noted: Homo sapiens, NCI-H358, read-out: Inhibition (HTRF IC50) of KRas-mediated Phosphorylation of ERK, H358.
Description: To harvest cells from flask using 0.05% Trypsin/EDTA solution. Add 10 mL of media to stop trypsinizing. Pipette the cells into a conical bottom 50 mL centrifuge tube and centrifuge 5 min×1000 rpm. • 2. Re-suspend the cell pellet in media, take a cell count, and then adjust the cell density using fresh media. • 3. Seed 6,000 cells into cell culture plate with 50 μL media. […] Incubate cell plate overnight in a 37° C., 5% CO2 incubator. • Compound titrations • 1. Use Tecan to complete the compound addition. Compounds start from 10 uM top, 3-fold dilution, and 10 doses. The final DMSO concentration is 0.8%. Dispensed 0.2 uM Trametinib as Min control. • 2. Incubate cell plate for 3 hrs in the incubator. • Detection with cisbio pERK HTRF kit • 1. […] At the end of the compound treatment, flick-off the media. • 3. Add 35 μL of lysis buffer per well using a Multidrop Combi. Then place on a plate agitator shaking at 300 rpm at 4° C. for 40 mins. • 4. Make up the HTRF antibody buffer. For each assay plate, mix 50 μL of d2-conjugate antibody with 950 μL of detection buffer. Similarly, mix 50 μL of Cryptate antibody with 950 μL of detection buffer. Then mix the two diluted antibodies together. • 5. Dispense 3.4 μL the antibody buffer to wells of an empty assay plate. Seal the plate and centrifuge plate 30 sec×1000 rpm. • 6. At the end of the 4° C. lysis, centrifuge the lysate plates 3 mins×1500 rpm. • 7. Use the Bravo to transfer 13.6 μL of lysate from cell culture plate to assay plate.
Then incubate assay plate for 2 hrs at room temperature. […] At the end of incubation, read plate on the Envision after centrifuging plate 30 sec× • 1000 rpm.
The target of assay [26] is T4, KRas G12R.
Description: as §2
The target in assay [27] is T1, KRas G12V.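 Also: KRas binding measured by TR-FRET displacement at room temperature, IC50 fitted from percent of control values.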
Description: as §2

Like-named read-outs stand apart in the source and are kept apart here. Bounds are passed on as bounds.

Usually IC50 stands for the concentration that inhibits the measured activity by half.

T2 sequence (P01116 1-169 isoform P01116-2 Q61H): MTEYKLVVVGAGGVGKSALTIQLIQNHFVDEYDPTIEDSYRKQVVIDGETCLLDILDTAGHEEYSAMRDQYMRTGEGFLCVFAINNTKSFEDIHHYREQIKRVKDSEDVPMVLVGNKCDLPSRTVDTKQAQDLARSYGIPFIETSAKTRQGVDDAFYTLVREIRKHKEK
T1 sequence (P01116 1-169 isoform P01116-2 G12V): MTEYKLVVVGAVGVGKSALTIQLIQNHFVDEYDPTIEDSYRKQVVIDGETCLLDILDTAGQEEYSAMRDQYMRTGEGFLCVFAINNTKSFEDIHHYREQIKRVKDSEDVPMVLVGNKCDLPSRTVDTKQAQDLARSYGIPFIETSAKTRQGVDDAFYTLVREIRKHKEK
Sequence of KRas WT (P01116 1-169 isoform P01116-2): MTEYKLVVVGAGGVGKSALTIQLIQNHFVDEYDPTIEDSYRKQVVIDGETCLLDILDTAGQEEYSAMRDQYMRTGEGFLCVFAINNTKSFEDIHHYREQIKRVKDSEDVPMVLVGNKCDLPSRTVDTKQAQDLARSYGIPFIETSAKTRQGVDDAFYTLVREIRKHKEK

For `C#Cc1c(F)ccc2cc(O)cc(-c3ncc4c(N5CCC[C@@](C)(O)C5)nc(OC[C@@]56CCCN5C[C@H](F)C6)nc4c3F)c12` [Example 13], the IC50 in [1] is 27 nM; in [2], at most 2 nM; in [3], at most 2 nM; in assay [4], at most 2 nM; in assay [5], 13 nM; in assay [6] it was 43 nM. The IC50 in [7] was 4 nM; in [8], at most 2 nM; in assay [9], at most 2 nM; in [10], at most 2 nM; in assay [11] it was 5 nM; in assay [12], at most 2 nM. The IC50 in assay [13] is at most 2 nM; in assay [14], 1090 nM; in [15] (Homo sapiens, NCI-H460, 3 h), 13 nM; in assay [16] (Homo sapiens, NCI-H727, 3 h), 44 nM; in assay [17], 11 nM; in [18], 10 nM. Moreover, the half-inhibitory concentration (IC50) in assay [19] (Homo sapiens, ASPC1, 3 h) is 18 nM; in assay [20], 773 nM; in assay [21] it was 42 nM; in assay [22], 140 nM; in assay [23], 33 nM; in assay [24] it was at most 2 nM.
In the case of `CCc1c(F)ccc2cc(O)cc(-c3ncc4c(N5CCC[C@@](C)(O)C5)nc(OC[C@@H]5CCCN5C)nc4c3F)c12` [Example 28, (3R)-1-[7-(8-ethyl-7-fluoro-3-hydroxy-1-naphthyl)-8-fluoro-2-[[(2S)-1-methylpyrrolidin-2-yl]methoxy]pyrido[4,3-d]pyrimidin-4-yl]-3-methyl-piperidin-3-ol], the half-inhibitory concentration (IC50) in assay [1] is 101 nM; in assay [2], at most 2 nM; in assay [3], at most 2 nM; in assay [4], at most 2 nM; in assay [5] it was 159 nM; in [6], 156 nM. In addition, the IC50 was 20 nM in [7]; 3 nM in assay [8]; 3 nM in [9]; at most 2 nM in assay [10]; 21 nM in [11]; 3 nM in assay [12]. For the same molecule, the IC50 amounted to 3 nM in assay [13]; 7250 nM in assay [14]; 54 nM in [15] (Homo sapiens, NCI-H460, 3 h); 308 nM in [16] (Homo sapiens, NCI-H727, 3 h); 60 nM in assay [17]; 24 nM in assay [18]. For the same molecule, the IC50 in [19] (Homo sapiens, ASPC1, 3 h) is 78 nM; in [20], at least 10000 nM; in assay [21], 153 nM; in [22] it was 523 nM; in assay [23] it was 155 nM; in [24], 3 nM.
For `CCc1c(F)ccc2cc(O)cc(-c3ncc4c(N5CCCC6(CC(=O)N6)C5)nc(OC[C@@]56CCCN5C[C@H](F)C6)nc4c3F)c12` (stereo partly drawn) [Example 57], the IC50 in assay [1] is 119 nM; in assay [2] it was at most 2 nM; in [5] it was 55 nM; in [6] it was 175 nM; in assay [7], 32 nM; in [8], at most 2 nM. In addition, the concentration for half-maximal inhibition (IC50) in assay [9] is 3 nM; in [12], at most 2 nM; in assay [13] it was at most 2 nM; in assay [15] (Homo sapiens, NCI-H460, 3 h), 119 nM; in [16] (Homo sapiens, NCI-H727, 3 h) it was 115 nM; in assay [17], 50 nM. The concentration for half-maximal inhibition (IC50) was 22 nM in assay [18]; 82 nM in assay [19] (Homo sapiens, ASPC1, 3 h); 4140 nM in assay [20]; 1080 nM in [21]; 668 nM in assay [22]; 2010 nM in assay [23].
For the molecule `CCc1c(F)ccc2cc(O)cc(-c3ncc4c(N5CC6CC(O)C(C6)C5)nc(OC[C@@]56CCCN5C[C@H](F)C6)nc4c3F)c12` (stereo partly drawn) [Example 82], the half-maximal inhibitory concentration (IC50) in assay [1] is 22 nM; in [2], at most 2 nM; in assay [25], 10 nM; in assay [5], 16 nM; in assay [6] it was 15 nM; in assay [7], 15 nM. For the same molecule, the half-inhibitory concentration (IC50) in [11] is 6 nM; in assay [12], at most 2 nM; in assay [13], at most 2 nM; in [14], 2320 nM; in assay [15] (Homo sapiens, NCI-H460, 3 h), 180 nM; in assay [16] (Homo sapiens, NCI-H727, 3 h), 65 nM. The IC50 in assay [17] is 3 nM; in assay [18], 10 nM; in assay [19] (Homo sapiens, ASPC1, 3 h), 18 nM; in [20], 1740 nM; in [21], 216 nM; in [22] it was 25 nM. For the same molecule, in [23], the 50% inhibitory concentration (IC50) was found to be 106 nM.
With `CCc1c(F)ccc2cc(O)cc(-c3ncc4c(N5C[C@H](O)C[C@@H](O)C5)nc(OC[C@@]56CCCN5C[C@H](F)C6)nc4c3F)c12` [Example 296, (3R,5R)-1-(7-(8-ethyl-7-fluoro-3-hydroxynaphthalen-1-yl)-8-fluoro-2-(((2R,7aS)-2-fluorohexahydro-1H-pyrrolizin-7a-yl)methoxy)pyrido[4,3-d]pyrimidin-4-yl)piperidine-3,5-diol], the IC50 is at most 2 nM in [26]; 53 nM in assay [11]; 4 nM in assay [13]; at least 10000 nM in assay [14]; at most 2 nM in [27]; 619 nM in [15]. Moreover, the IC50 was 2080 nM in [16] and 2200 nM in assay [19].

(Values after US12398154B2, “Azaquinazoline pan-KRas inhibitors” (Mirati Therapeutics, Inc., priority 2020, dated 2025).)
